In paper PMC3747139 (PLoS ONE, 2013):
Several values for one entry are separate records, joined by “and”; a condition that tells them apart may be missing. Equal entries are not always repeated.

Columns and labels:
B16F10 cells = experiment: Flow cytometry cell cycle analysis (PI); assay type: cell-based, human; settings: for cells in G0/G1 phase / cells in G2/M phase / cells in S phase / cells in Sub G1 phase: 200 µM L1, 125 µM L2, 50 µM L3, 3 h
Procedure: Since MTT and cell culture assays yielded encouraging results with B16F10 cells they were used for confocal and flow cytometry experiments. After 90% confluence, the cells were treated with 200 µM, 125 µM and 50 µM of L1, L2, L3 respectively, for 3 h. 1×10^6 cells were washed with 2× binding buffer and resuspended in 100 µl binding buffer and Annexin-V-FITC (1.0 µg). The cells were then incubated at room temperature for 10 min, followed by the addition of 400 µl of binding buffer containing 1 µl of Propidium Iodide (PI). Stained cells were analyzed using FACS Calibur Flow Cytometer from B.D. Biosceinces (USA). Annexin-V-FITC and PI labelled cells were excited using 488 nm solid-state laser and fluorescence emission intensity was captured using 530/30 and 585/42 band pass filters respectively.

telomerase = tested on: telomerase; parameters: method as in PMID 10741725; settings: cited from earlier work
NQF DNA = experiment: Stop assay (inhibition of in vitro DNA synthesis) with NQF DNA; assay type: biochemical; settings: 5 µM NQF DNA
Procedure: The G-quadruplex structure forming region of QF oligonucleotide is shown in bold letters.
To the PCR reaction mixture (25 µl) containing 10 mM Tris-HCl, pH 8.3, with 50 mM KCl, 1.5 mM Mg(OAc)2, 5 µM of each oligonucleotide, 1 mM dNTPs, 5 units of Taq polymerase, L1, L2, L3 were added at various concentrations (50 µM, 100 µM, 150 µM, 200 µM), and PCR reactions were performed. PCR mixture without any ligand was considered as control. The primers were 5′ end-labelled with [γ-^32P] ATP using 1 µl of polynucleotide kinase and 5 µl of 10× kinase buffer and the contents were incubated at 37°C for 5 min. Stop assay was performed using an ABI thermal cycler. Initial denaturation was done at 94°C for 3 min, followed by 20 repeated cycles each having 94°C for 30 sec, 58°C for 30 sec, and 72°C for 30 sec. After PCR, 5 µl of the amplified product was loaded on a 12% non-denaturing polyacrylamide gel with 1×TBE. The in vitro DNA synthetic band intensity was measured using Bio Rad Gel Doc XR+system (USA). The band intensity of the PCR product obtained with no ligand was taken as control for all the quadruplex forming DNA samples (QF DNA). Percentage of DNA synthesis inhibition was calculated using equation 1, whereas, inhibition constant, Ki (using Cheng-Prusoff equation) for each ligand was calculated by using equation 2. [drawing 2] (1)

[1] = tested on: dsDNA (poly-dA-dT and poly-dT-dA); experiment: SYBR Green melting study with dsDNA; assay type: binding; settings: 5 µM dsDNA, 1 µM ligand; dsDNA alone 24°C
Procedure: When quadruplex DNA melts to form ssDNA structure, SG fluorescence intensity gradually reduces as SG has no binding to ssDNA. Each time, 5 µM of HQF DNA [d(T2AG3)4)], 5 µM of dsDNA (prepared by mixing equal concentration of poly-dA-dT and poly-dT-dA), 5 µM ssDNA ( poly dT alone) and 1 µM of each ligand was incubated at 4°C for 16 h, and used for melting studies. […] Affinity, stoichiometry and thermodynamic parameters for quadruplex-ligand complex were studied with 60 µM of ligand and 10 µM of HQF DNA using Microcal VP-ITC (Northampton, MA, USA). Ligand addition to G-quadruplex DNA was made every 180 seconds. Titration experiments were performed thrice and blank correction was made each time to minimize error.

Compound | cells in G0/G1 phase (B16F10 cells) | cells in G2/M phase (B16F10 cells) | cells in S phase (B16F10 cells) | cells in Sub G1 phase (B16F10 cells) | concentration reported to inhibit telomerase (telomerase) | inhibition of in vitro DNA synthesis with NQF DNA (NQF DNA) | subG1 cell population enhanced compared to other nucleoside ligands (B16F10 cells; L3 versus L1 and L2) | Tm of dsDNA with ligand [1]
Cc1cn([C@H]2C[C@H](N=[N+]=[N-])[C@@H](CO)O2)c(=O)[nH]c1=O [Ligand L1, 1-(4-azido 5-(hydroxylmethyl)tetrahydrofuran-2-yl)-5-methyl pyrimidi-ne-2,4(1H,3H)-dione, reference compound] | 26.94% | 5.58% and 05.58% | 06.38% | 61.10% | around 200 µM |  |  | 
Cc1cn([C@H]2C[C@H](n3cc(-c4ccccc4)nn3)[C@@H](CO)O2)c(=O)[nH]c1=O [Ligand L2] | 07.78% | 1.93% and 01.93% | 8.77% and 08.77% | 81.5% and 81.52% |  |  |  | 
Cc1cn([C@H]2C[C@H](n3cc(-c4ccc(Cl)cc4)nn3)[C@@H](CO)O2)c(=O)[nH]c1=O [Ligand L3, 1-(4-(4-(4-chlorophenly)-1H-1,2,3-triazole-1-yl)-5-(hydroxymethyl)tetrahydrofuran-2-yl)-5-methylpyrimidine-2,3(1H,3H)-dione] | 4.46% and 04.46% | 0.91% and 00.91% | 5.36% and 05.36% | 89.27% |  | around 33% | 10–30% | 25 °C
